According to PubChem BioAssay (NCI):
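The compound was tested at five concentrations on cells cultured in 96-well plates, with a 48-hour exposure period. At the GI50, growth is halved. At the TGI there is no net growth.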

Tests used:
Assay in all cases: NCI tumour cell line growth inhibition, 48 h
OVCAR-3 ovarian = test system: OVCAR-3 ovarian
CAKI-1 renal = test system: CAKI-1 renal
RPMI-8226 leukemia = test system: RPMI-8226 leukemia
EKVX NSCLC = test system: EKVX NSCLC
MALME-3M melanoma = test system: MALME-3M melanoma
HCT-116 colon = test system: HCT-116 colon
HOP-92 NSCLC = test system: HOP-92 NSCLC
NCI-H226 lung = test system: NCI-H226 lung
NCI/ADR-RES ovarian = test system: NCI/ADR-RES ovarian
PC-3 prostate = test system: PC-3 prostate

Compound | TGI (OVCAR-3 ovarian) [µM] | TGI (CAKI-1 renal) [µM] | TGI (RPMI-8226 leukemia) [µM] | TGI (EKVX NSCLC) [µM] | TGI (MALME-3M melanoma) [µM] | TGI (HCT-116 colon) [µM] | TGI (HOP-92 NSCLC) [µM] | GI50 (OVCAR-3 ovarian) [µM] | GI50 (CAKI-1 renal) [µM] | GI50 (NCI-H226 lung) [µM] | TGI (NCI-H226 lung) [µM] | GI50 (NCI/ADR-RES ovarian) [µM] | TGI (NCI/ADR-RES ovarian) [µM] | GI50 (RPMI-8226 leukemia) [µM] | GI50 (EKVX NSCLC) [µM] | GI50 (PC-3 prostate) [µM] | TGI (PC-3 prostate) [µM] | GI50 (MALME-3M melanoma) [µM] | GI50 (HCT-116 colon) [µM] | GI50 (HOP-92 NSCLC) [µM]
O=C(CO)C1CC2C=CC1C2 (stereo not given) | > 100 | > 100 | > 100 | > 100 | > 100 | > 100 | > 100 |  |  |  |  |  |  |  |  |  |  |  |  | 
O=C1C(Nc2cccc(O)c2)=C(Sc2ccccc2)C(=O)N1Cc1ccccc1 | 19.9 | 55.2 | 4.07 | 28.5 | 9.97 | 21.5 |  | 4.83 | 21.6 | 2.55 | 22 | 11.5 | 31.9 | 1.36 | 10.1 | 2.15 | 14.3 | 1.74 | 9.87 | 
C=C1C=CC2(Br)OC3CC(C)(Cl)C(Br)CC13C2(C)C (stereo not given) | 40.8 | > 100 | 53.1 | 61.9 | 34.5 | 28.5 | 50.8 |  |  |  | 34.1 |  |  |  |  |  |  |  |  | 
CC(=O)N(O)c1ccc(/C=C/c2ccccc2)cc1 | 29.2 | 3.22 | > 100 |  | > 100 | 13.4 | 3.65 | 2.55 | 0.543 | 0.0656 | 0.386 | 2.21 | 44.1 | 3.21 |  | 2.32 | > 100 | > 66.6 | 1.12 | 1.14
CC(=O)CC(=O)CCC(=O)Nc1cccc(C(F)(F)F)c1 | > 100 | > 100 | > 100 | > 100 | > 100 | > 100 | > 100 |  |  |  | > 100 |  |  |  |  |  |  |  |  | 
Cc1nnc(N/N=C(/C(=O)C(C#N)c2ccc(Cl)cc2)C(C#N)c2ccc(Cl)cc2)n1N (stereo not given) | 48.8 | 43.1 | 45.6 |  | 33.6 |  | > 100 |  |  |  | 33.5 |  |  |  |  |  |  |  |  | 
CC(=O)[CH-]C(C)=O.CC(=O)[CH-]C(C)=O.CC(=O)[CH-]C(C)=O.[Ga+3] | > 100 | > 100 | > 100 | > 100 | > 100 | > 100 |  | > 100 | > 100 | > 100 | > 100 |  |  | > 100 | > 100 |  |  | > 100 | > 100 | 
COc1ccc(/C=N\Nc2nc(SCC(C)C)nc(-c3ccc(OC)cc3)c2C#N)cc1 | 21.1 | 3.96 | > 100 | 86.9 | 47.9 | 15.3 | 14.1 | 6.71 | 1.55 | 10.5 | 49.7 | 10.8 | 85.4 | 5.48 | 12.4 |  |  | 10.2 | 0.679 | 2.39
CC(C)N(Cc1ccc(F)cc1)c1ccc(CO)c(Cl)c1 | 0.623 | 2.02 | 20.1 |  | 30.3 | 3.75 | 4.22 | 0.184 | 0.245 | 0.054 | 0.179 | 10.4 | 23.8 | 1.46 |  | 11.4 | 24.2 | 14.4 | 0.0415 | 0.205
